Columns and labels:
CYP3A4 = system: CYP3A4
Procedure: FIG. 14A, cells were grown in a collagen-Matrigel™ sandwich with serum supplemented medium. FIG. 14B, cells were grown under routine culture conditions, but with serum-free medium. Data are the mean of replicate assays (n=2). Error bars indicate the standard deviation of replicate assays.
We undertook an evaluation of CYP3A4 activity in phHASC strains using a commercially available luciferase-based luminescent assay. The p450-GLO™ CYP3A4 luminescent assay was supplied by Promega Corp. (Madison, Wis.). The assay is based on a caged luciferin substrate that is specifically uncaged by the enzymatic action of CYP3A4. Once uncaged, luciferin is available for luciferase action and light production.
We evaluated the effect of rifampicin under two different conditions with two different concentrations of the solvent carrier DMSO, 0.03% and 5%. Parental phHASCs were evaluated after growth in a collagen-Matrigel™ sandwich, as recommended by the supplier of the p450-GLO™ CYP3A4 luminescent assay (FIG. 14A) or under standard culture conditions with serum-free medium (FIG. 14B).

somatic liver stem cells = experiment: Derivation of phHASC strains from liver cells by the modified SACK method; format: cell-based, human
Procedure: Cells: Human liver cells are tested for blood borne agents, the non-parenchymal (NPC) fraction is place on ice for up to 24 hours and then centrifuged at 800×g for 5 minutes at 4° C. The resulting cell pellet is re-suspended in 50 ml-100 ml cold Dulbecco's Modified Eagle medium (DMEM-high glucose) supplemented with 1% dialyzed fetal bovine serum (DFBS). Based on the count of trypan blue-excluding viable cells, 5×10^6 viable cells are plated in 10-cm diameter cell culture dishes. Initiation Culture Medium: […] Maintenance Culture Medium: DMEM-high glucose supplemented with 10% DFBS, 20 ng/ml recombinant human epidermal growth factor, 0.5 ng/ml transforming growth factor β1, and the respective purine compound at the concentration used in the Initiation Culture Medium. Although initial efforts to derive cell strains by limiting dilution cloning were unsuccessful, we modified the approach by initially culturing primary liver cell preparations at confluent cell densities under conditions of reduced serum and supplementation with SACK agents, TGF-β and EGF (See Table 1). SACK-derived rat adult stem cell strains resist hepatocytic differentiation by TGF-β and EGF. Whereas their non-stem cell progeny undergo cell cycle withdrawal and hepatic differentiation in response to serum reduction and exposure to TGF-β and EGF, in the presence of Xs, the stem cells continue to cycle actively. The first four livers were invested in establishing a modified SACK procedure. Unlike the original procedure developed for derivation of rat hepatic adult stem cells (Lee et al., 2003), the new method is not based on limiting dilution cloning. Instead, the liver cells are initially cultured at confluent cell densities in low serum medium (1% dialyzed fetal bovine serum [dFBS]) supplemented with the growth factors TGFβ and EGF. In addition, higher concentrations of SACK agents are used, e.g. 1.5 mM Xs. These conditions suppress the growth of differentiating liver cells (including troublesome fibroblasts and stellate cells), while promoting the expansion of […]. After initial outgrowth of […] strains, serum supplementation is increased to 10% dFBS for routine maintenance. Table 1 summarizes results obtained when the newly adapted SACK procedure was applied to cell specimens from two livers from […] donors. All strains were cryo-preserved at early passages using a freezing procedure that minimizes the time that cells spend super-cooled before ice formation (Karlsson et al., 1996). This precaution provides a high level of viability (70%-80%) upon thawing the cells.

phHASC subclone C2 = experiment: Colcemid arrest assay (CAA) of non-cycling cell fraction; format: cell-based, human; conditions: subclone C2, +Xs compared to -Xs
Procedure: FIGS. 12A and 12B show CAA analyses of a Xs-derived sub-clone (Parental strain see FIG. 10). […] The new assay is called the colcemid arrest assay (CAA). We used our engineered cell lines with experimentally controlled asymmetric self-renewal to develop it (Rambhatla et al., 2001; FIG. 9). Cell cultures are treated with the microtubule antagonist colcemid for a complete generation period. Conventional methods for propidium iodine staining and standard flow cytometry are used to quantify the DNA content of cells after colcemid treatment. In the presence of colcemid, cycling cells arrest in mitosis of the cell cycle with 4N DNA content. After one generation period, all previously cycling cells contain this amount of DNA. Therefore, for cell cultures with only symmetrically cycling cells, essentially the entire culture arrests in mitosis with 4N DNA (compare FIGS. 9A and 9C). In contrast, the DNA content of non-cycling cells is unchanged. […] Thus, CAA can identify and quantify the cycling stem cell fraction and the arrested differentiated progeny fraction of an asymmetrically self-renewing adult stem cell population (compare FIGS. 9B and 9D). […] In pilot studies with engineered cell lines, the CAA-determined rates were in good agreement with expectations based on previous lineage-specific cell kinetics assays. […]

SMILES	effect on basal level of CYP3A4 activity (CYP3A4)	increase in CYP3A4 activity (CYP3A4; human, 48 h, 5 %) [fold]	Number of Strains (somatic liver stem cells; liver, 2 trials per SACK agent)	Number of Strains (somatic liver stem cells; liver, 3 trials per SACK agent)	reliability and effectiveness for developing strains (somatic liver stem cells; compared among Hx, Xn and Xs)	Sub-clones (somatic liver stem cells; liver)	non-cycling fraction (phHASC subclone C2)
C[S+](C)[O-] [DMSO, dimethylsulfoxide]	did not affect	6.5					
O=c1[nH]cnc2nc[nH]c12 [Hx, hypoxanthine]			2	3			
O=c1[nH]c(=O)c2[nH]cnc2[nH]1 [Xn, xanthine]			1	3			
O=c1[nH]c(=O)c2ncn([C@@H]3O[C@H](CO)[C@@H](O)[C@H]3O)c2[nH]1 [Xs, xanthosine]			2	1	most reliable and effective	9	reduced

From patent US7824912B2, “Methods for ex vivo propagation of adult hepatic stem cells” (Massachusetts Institute of Technology, priority 2005, dated 2010)
